From US4110327A, “2,3 Diketo-piperazinocarbonylamino alkanoic acids and derivatives” (Toyama Chemical Co., Ltd., priority 1974, dated 1978)
Values after ≈ are worked out from the molar mass of the structure shown.

Key:
Test in all cases: MIC against standard strain, plate method
Type in all cases: cell-based
[1] = system: Staphylococcus aureus 209p; conditions: unit assumed
Protocol: (§1) The minimum inhibitory concentrations (MIC) was determined by the plate method disclosed in "Chemotherapy" (Japan), Vol. 16, (1968), pages 98 - 99. The culture medium used was a Heart infusion agar (pH 7.4). The number of the cells per plate used in the inoculum as 10^4 (10^6 cells/ml).

Klebsiella pneumoniae = conditions: unit assumed
Protocol: as §1

Proteus vulgaris 3027 = conditions: Proteus vulgaris 3027, standard strain; unit assumed
Protocol: as §1

[2] = system: Pseudomonas aeruginosa I.F.O.; conditions: unit assumed
Protocol: as §1

Escherichia coli NIHJ = conditions: unit assumed
Protocol: as §1

SMILES	MIC [1]	MIC (Klebsiella pneumoniae)	MIC (Proteus vulgaris 3027)	MIC [2]	MIC (Escherichia coli NIHJ)
CN1CCN(C(=O)NC(C(=O)N[C@@H]2C(=O)N3[C@@H]2SC(C)(C)[C@@H]3C(=O)O)c2cccs2)C(=O)C1=O (some centres unmarked) [compound 58]	< 1.57 µg/mL	25 µg/mL (≈ 49.1 µM)	3.13 µg/mL (≈ 6.14 µM)	12.5 µg/mL (≈ 24.5 µM)	< 1.57 µg/mL
C=C(C)CN1CCN(C(=O)N[C@@H](C(=O)N[C@@H]2C(=O)N3[C@@H]2SC(C)(C)[C@@H]3C(=O)O)c2ccccc2)CC1=O [compound 27]	< 1.57 µg/mL	25 µg/mL (≈ 47.2 µM)	3.13 µg/mL (≈ 5.91 µM)	25 µg/mL (≈ 47.2 µM)	< 1.57 µg/mL
CCN1CCN(C(=S)NC(C(=O)NC2C(=O)N3C(C(=O)O)=C(COC(C)=O)CSC23)c2ccccc2)C(=O)C1=O (centres unmarked) [compound 67]	6.25 µg/mL (≈ 10.6 µM)	3.13 µg/mL (≈ 5.31 µM)	12.5 µg/mL (≈ 21.2 µM)	100 µg/mL (≈ 170 µM)	< 0.79 µg/mL
CCCCN1CC(=O)N(C(=O)N[C@@H](C(=O)N[C@@H]2C(=O)N3[C@@H]2SC(C)(C)[C@@H]3C(=O)O)c2ccccc2)C(C)C1 (some centres unmarked) [compound 15]	< 1.57 µg/mL	6.25 µg/mL (≈ 11.5 µM)	6.25 µg/mL (≈ 11.5 µM)	50 µg/mL (≈ 91.6 µM)	3.13 µg/mL (≈ 5.74 µM)
CC1(C)S[C@@H]2[C@H](NC(=O)[C@H](NC(=O)N3CCN(Cc4ccccc4)C(=O)C3)c3ccccc3)C(=O)N2[C@H]1C(=O)O [compound 23]	< 1.57 µg/mL	6.25 µg/mL (≈ 11 µM)	3.13 µg/mL (≈ 5.53 µM)	25 µg/mL (≈ 44.2 µM)	< 1.57 µg/mL
CC(=O)OCCN1CCN(C(=O)N[C@@H](C(=O)N[C@@H]2C(=O)N3[C@@H]2SC(C)(C)[C@@H]3C(=O)O)c2ccccc2)C(=O)C1=O (single isomer, unassigned) [compound 41]	< 1.57 µg/mL	6.25 µg/mL (≈ 10.9 µM)	< 1.57 µg/mL	25 µg/mL (≈ 43.4 µM)	< 1.57 µg/mL
CC1(C)S[C@@H]2[C@H](NC(=O)[C@H](NC(=O)N3CC(=O)N(C(=O)c4ccccc4)CC3=O)c3ccccc3)C(=O)N2[C@H]1C(=O)O [compound 34]	1.57 µg/mL (≈ 2.64 µM)	50 µg/mL (≈ 84.2 µM)	50 µg/mL (≈ 84.2 µM)	100 µg/mL (≈ 168 µM)	3.13 µg/mL (≈ 5.27 µM)
CCCCCCCCN1CCN(C(=O)NC(C(=O)NC2C(=O)N3C2SC(C)(C)C3C(=O)OCCN2CCCCC2)c2ccccc2)C(=O)C1=O (single isomer, unassigned) [compound 54]	0.79 µg/mL (≈ 1.11 µM)	0.79 µg/mL (≈ 1.11 µM)	0.79 µg/mL (≈ 1.11 µM)	12.5 µg/mL (≈ 17.5 µM)	0.4 µg/mL (≈ 0.561 µM)
CC(C)N1CCN(C(=O)N[C@@H](C(=O)N[C@@H]2C(=O)N3[C@@H]2SC(C)(C)[C@@H]3C(=O)O)c2ccccc2)CC1=O [compound 20]	3.13 µg/mL (≈ 6.05 µM)	25 µg/mL (≈ 48.3 µM)	3.13 µg/mL (≈ 6.05 µM)	12.5 µg/mL (≈ 24.1 µM)	< 1.57 µg/mL
CN1CCN(C(=O)N[C@@H](C(=O)N[C@@H]2C(=O)N3[C@@H]2SC(C)(C)[C@@H]3C(=O)OC2OC(=O)c3ccccc32)c2ccccc2)C(=O)C1=O (single isomer, unassigned) [compound 49]	< 0.4 µg/mL	12.5 µg/mL (≈ 19.7 µM)	1.57 µg/mL (≈ 2.47 µM)	12.5 µg/mL (≈ 19.7 µM)	0.79 µg/mL (≈ 1.24 µM)
CCCCCCCCN1CCN(C(=O)N[C@@H](C(=O)N[C@@H]2C(=O)N3[C@@H]2SC(C)(C)[C@@H]3C(=O)OCOC)c2ccccc2)C(=O)C1=O (single isomer, unassigned) [compound 51]	< 0.4 µg/mL	< 0.4 µg/mL	< 0.4 µg/mL	12.5 µg/mL (≈ 19.4 µM)	< 0.4 µg/mL
CN1CCN(C(=O)NC(C(=O)NC2C(=O)N3C(C(=O)O)=C(CSc4nncs4)CSC23)c2ccccc2)C(=O)C1=O (single isomer, unassigned) [compound 64]	0.79 µg/mL (≈ 1.28 µM)	1.57 µg/mL (≈ 2.54 µM)	3.13 µg/mL (≈ 5.07 µM)	25 µg/mL (≈ 40.5 µM)	< 0.1 µg/mL
CC(C)CCN1CCN(C(=O)N[C@@H](C(=O)N[C@@H]2C(=O)N3[C@@H]2SC(C)(C)[C@@H]3C(=O)O)c2ccccc2)CC1=O [compound 21]	< 0.79 µg/mL	25 µg/mL (≈ 45.8 µM)	3.13 µg/mL (≈ 5.74 µM)	25 µg/mL (≈ 45.8 µM)	1.57 µg/mL (≈ 2.88 µM)
